Results on 1 molecule are retold here after article PMC9085437, “Silica-coated magnetic iron oxide functionalized with hydrophobic polymeric ionic liquid: a promising nanoscale sorbent for simultaneous extraction of antidiabetic drugs from human plasma prior to their quantitation by HPLC” (RSC Advances, 2018).

The series is described as follows: Pharmacokinetic assessment in healthy fed male volunteers after oral tablet administration, plasma quantified by MSPE-HPLC-UV. To be noted: human, in vivo, 25 mg. The method, then: The chromatographic analysis was conducted using a Waters alliance e2695, (Massachusetts, USA) system which was equipped with a Waters 2487 dual wavelength detector and C18 TMS endcapping/reversed phase column (Luna 5 μm C18 100 A HPLC column 250 × 4.6 mm id, Phenomenex Co, Torrance, CA) at 40 °C. The mobile phase which being used in an isocratic mode was composed of potassium dihydrogen phosphate and sodium dodecyl sulfate (0.01 M, pH 6): acetonitrile (55 : 45, v/v) and passed through column with flow rate of 1 mL min^−1 (the mobile phase was filtered and degassed daily prior to use in HPLC). […] The column effluent was monitored at UV wavelength of 215 nm and the injection volume was 20.0 μL. The mobile phase was filtered by passing it through a 0.2 μm membrane filter (Millipore, Bedford, MA, USA).
Every frozen human plasma were firstly thawed at room temperature and placed into a sample glass tube. Preparation of plasma before MSPE method was based on protein precipitation with aid of acetonitrile. In this regard, the plasma (1.9 mL) was fortified with 100.0 μL of required concentrations of analytes followed by mixing with 2.0 mL ACN. The obtained solution was vortexed for 1 min and centrifuged for 5 min at 3500 rpm. Then, ACN content of the clear supernatant was evaporated under nitrogen stream and the remaining sample was transferred into 4.0 mL buffer solution at pH 4.0. Sample volume after evaporation under nitrogen stream was about 2 mL and total sample volume after transferring to 4 mL buffer solution was about 6 mL. 5.0 mL of the deproteinized samples containing target drugs were subjected to the extraction procedure for subsequent analysis.
Initially, 5.0 mL of the deproteinized human plasma (initial volume of spiked plasma sample 2.0 mL) was placed into a glass tube and 10.0 mg of magnetic Fe3O4@SiO2@PIL was added to the sample. The mixture was sonicated for 4 min to totally disperse the magnetic sorbent through the matrix and complete the extraction of target drugs at room temperature. Analyte-loaded sorbent was collected from the sample solution by exposing the glass tube to a powerful neodymium–iron–boron (Nd–Fe–B) magnet (5 × 5 × 4 cm, 0.8 tesla), and the upper phase was poured out. Later, the adsorbed analytes were eluted by 1.0 mL of acetonitrile (0.5 mL every time and washed two times) to desorb the analytes. Elution process was completed during 2 min in the ultrasonic bath. The magnet was used again to separate the sorbent and then the total volume of eluted solution was collected and evaporated to dryness under stream of the nitrogen. The dry residue was re-dissolved in 100.0 μL of mobile phase and stirred for 1 min. Finally, 20.0 μL of this solution was injected into the HPLC-UV system for analysis.
Eight healthy fed male volunteers within the age range of 28–42 years old were enrolled in these studies. […] The plasma samples were immediately transferred into a clean polypropylene tube and stored at −18 °C until being used. All assessments were approved by “The Committee For Research Ethics” of Department of Pharmacy and Pharmaceutical Sciences Research Center, Tehran University of Medical Sciences. In the next experiments, a single oral dose administration of Jardiance tablet (25 mg EMPA) was performed to four volunteers and the blood samples were collected and treated as the previous experiments. Each real sample was extracted at optimal conditions by the proposed procedure and the mean plasma concentration–time curve was obtained.

For orientation: AUC(0-inf) means total exposure, with the tail of the curve extrapolated. A high value points to high exposure. Broadly, the AUC(0-t) is the area under the concentration-time curve up to a stated or last time point. As usually defined, the Cmax is the maximum level reached in the sampled fluid or tissue. By Tmax is commonly meant the time at which the peak concentration occurs. Broadly, the half-life is how long it takes for the measured level to halve. Low values mean fast loss, high ones slow loss. Consider `OC[C@H]1O[C@@H](c2ccc(Cl)c(Cc3ccc(O[C@H]4CCOC4)cc3)c2)[C@H](O)[C@@H](O)[C@@H]1O` [EMPA, empagliflozin], for which the total exposure AUC(0-inf) was found to be 1430 ± 151 ng·h/mL, the AUC(0-t) amounted to 1400 ± 122 ng·h/mL, the peak level (Cmax) was 216 ± 44.1 ng/mL and the Tmax was 2.9 ± 0.3 h. The same molecule had a half-life of 7.2 ± 1.1 h.
